Source: the supplement of paper PMC11061612

How the values were obtained:
Test in all cases: combination Emax (second highest fraction inhibited in the dose matrix, 72 h); higher = more inhibition; extreme values may be limits of the assay
[1] = tested on: NCI-H2141 (Small Cell Lung Carcinoma)
Summary of the method: (§1)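 Cell lines grown in DMEM/F12 or RPMI with 10% FBS were plated in 1536-well plates and held 24 hours at 37°C, 5% CO2 before 72 hours of exposure to two-drug dose matrices, with DMSO typically at 0.2%. CellTiter-Glo 2.0 luminescence gave viability, which was converted to inhibition. Vehicle wells were set to 0 and blank wells to 1. Combination Emax is the second-highest inhibition in the matrix, and Bliss excess is the observed combination effect minus the expected EA + EB − EA·EB, where EA and EB are the single-agent effects.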

[2] = tested on: TT2609-C02 (Thyroid Gland Carcinoma)
Summary of the method: as §1

[3] = tested on: SISO (Cervical Carcinoma)
Summary of the method: as §1

[4] = tested on: FU97 (Gastric Carcinoma)
Summary of the method: as §1

[5] = tested on: OS-RC-2 (Kidney Carcinoma)
Summary of the method: as §1

[6] = tested on: COLO-320-HSR (Colorectal Carcinoma)
Summary of the method: as §1

[7] = tested on: ONS-76 (Other Solid Carcinomas)
Summary of the method: as §1

[8] = tested on: NCI-H2591 (Mesothelioma)
Summary of the method: as §1

[9] = tested on: BICR22 (Oral Cavity Carcinoma)
Summary of the method: as §1

[10] = tested on: NCI-H1693 (Lung Adenocarcinoma)
Summary of the method: as §1

[11] = tested on: U-2-OS (Osteosarcoma)
Summary of the method: as §1

[12] = tested on: SK-MG-1 (Low Grade Glioma)
Summary of the method: as §1

[13] = tested on: CAS-1 (Glioblastoma)
Summary of the method: as §1

[14] = tested on: VCaP (Prostate Carcinoma)
Summary of the method: as §1

[15] = tested on: CAPAN-2 (Pancreatic Carcinoma)
Summary of the method: as §1

[16] = tested on: NCI-H1650 (Lung Adenocarcinoma)
Summary of the method: as §1

[17] = tested on: MDST8 (Colorectal Carcinoma)
Summary of the method: as §1

[18] = tested on: KARPAS-422 (B-Cell Non-Hodgkin's Lymphoma)
Summary of the method: as §1

[19] = tested on: NCI-H2066 (Squamous Cell Lung Carcinoma)
Summary of the method: as §1

[20] = tested on: GI-ME-N (Neuroblastoma)
Summary of the method: as §1

Structure (SMILES)	combination Emax [1]	combination Emax [2]	combination Emax [3]	combination Emax [4]	combination Emax [5]	combination Emax [6]	combination Emax [7]	combination Emax [8]	combination Emax [9]	combination Emax [10]	combination Emax [11]	combination Emax [12]	combination Emax [13]	combination Emax [14]	combination Emax [15]	combination Emax [16]	combination Emax [17]	combination Emax [18]	combination Emax [19]	combination Emax [20]
C=CCn1c(=O)c2cnc(Nc3ccc(N4CCN(C)CC4)cc3)nc2n1-c1cccc(C(C)(C)O)n1 [AZD1775] + O=C(c1cc(Cc2n[nH]c(=O)c3ccccc23)ccc1F)N1CCN(C(=O)C2CC2)CC1 [Olaparib] (first compound max 1 µM, partner max 10 µM)	0.528	0.358	0.679	0.281	0.298	0.606	0.662	0.253	0.508	0.288	0.637	0.572	0.52	0.631	0.394	0.403	0.408	0.678	0.377	0.337
CCN(CCO)CCCOc1ccc2c(Nc3cc(CC(=O)Nc4cccc(F)c4)[nH]n3)ncnc2c1 [AZD2811] + C=CCn1c(=O)c2cnc(Nc3ccc(N4CCN(C)CC4)cc3)nc2n1-c1cccc(C(C)(C)O)n1 [AZD1775] (first compound max 1 µM, partner max 1 µM)	0.502	0.361	0.568	0.219	0.305	0.631	0.607	0.194	0.468	0.225	0.628	0.455	0.496	0.558	0.299	0.346	0.465	0.569	0.203	0.29
CCN(CCO)CCCOc1ccc2c(Nc3cc(CC(=O)Nc4cccc(F)c4)[nH]n3)ncnc2c1 [AZD2811] + C[C@@H]1COCCN1C2=NC(=NC(=C2)C3(CC3)[S@](=N)(=O)C)C4=C5C=CNC5=NC=C4 [AZD6738] (first compound max 1 µM, 7x7, partner max 10 µM)	0.502	0.331	0.551	0.373	0.429	0.599	0.908	0.315	0.729	0.232	0.642	0.515	0.544	0.289	0.29	0.414	0.724	0.565	0.339	0.552
CCN(CCO)CCCOc1ccc2c(Nc3cc(CC(=O)Nc4cccc(F)c4)[nH]n3)ncnc2c1 [AZD2811] + O=C(c1cc(Cc2n[nH]c(=O)c3ccccc23)ccc1F)N1CCN(C(=O)C2CC2)CC1 [Olaparib] (first compound max 1 µM, 7x7, partner max 10 µM)	0.307	0.299	0.454	0.332	0.178	0.0695	0.398	0.182	0.362	0.236	0.219	0.405	0.255	0.224	0.184	0.249	0.338	0.375	0.214	0.196
CN(CCO)CC[C@H](CSc1ccccc1)Nc1ccc(S(=O)(=O)NC(=O)c2ccc(N3CCC([C@@H](O)c4ccccc4-c4ccc(Cl)cc4)CC3)cc2)cc1S(=O)(=O)C(F)(F)F [AZD4320] + C=CCn1c(=O)c2cnc(Nc3ccc(N4CCN(C)CC4)cc3)nc2n1-c1cccc(C(C)(C)O)n1 [AZD1775] (first compound max 1 µM, partner max 1 µM)	1	0.722	0.549	0.454	0.337	0.632	0.726	0.159	0.882	0.355	0.782	0.91	0.713	0.717	0.688	0.403	0.992	0.978	0.646	0.334
CN(CCO)CC[C@H](CSc1ccccc1)Nc1ccc(S(=O)(=O)NC(=O)c2ccc(N3CCC([C@@H](O)c4ccccc4-c4ccc(Cl)cc4)CC3)cc2)cc1S(=O)(=O)C(F)(F)F [AZD4320] + CCN(CCO)CCCOc1ccc2c(Nc3cc(CC(=O)Nc4cccc(F)c4)[nH]n3)ncnc2c1 [AZD2811] (first compound max 1 µM, 7x7, partner max 1 µM)	0.896	0.505	0.401	0.177	0.159	0.0615	0.589	0.561	0.828	0.221	0.389	0.731	0.417	0.194	0.776	0.254	0.918	0.903	0.543	0.19
CN(CCO)CC[C@H](CSc1ccccc1)Nc1ccc(S(=O)(=O)NC(=O)c2ccc(N3CCC([C@@H](O)c4ccccc4-c4ccc(Cl)cc4)CC3)cc2)cc1S(=O)(=O)C(F)(F)F [AZD4320] + Cc1cc2ncnn2cc1Nc1ncc2c(n1)n(C1CCOCC1)c(=O)n2C [AZD7648] (first compound max 1 µM, 7x7, partner max 10 µM)	0.829	0.182	0.0433	0.32	0.119	0.0909	0.173	0.188	0.594	0.174	0.238	0.295	0.171	0.165	0.653	0.245	0.821	–	0.885	0.153
